The text below walks through data of patent US11873291B2, “Quinoline cGAS antagonist compounds” (ImmuneSensor Therapeutics, Inc., priority 2020, dated 2024).

Experiment [1] concerns the target T1, recombinant human cGAS (aa147-522) (Homo sapiens, UniProt Q8N884).
T1 construct: recombinant human cGAS (aa147-522); His6-SUMO (cleaved yes); made in house; host or cells: E. coli BL21/pLys
In words: In vitro inhibition assay of cGAS activity (ATP consumption, KinaseGlo Max). The class given is biochemical. To be noted: Table 3, read-out: cGAS Inhibition Results IC50. In outline: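 De-tagged recombinant human cGAS (aa147-522, 1.5 μg/mL) was incubated 20 min at 37 °C with herring testis DNA, 6.6 μM ATP and 0.1 mM GTP in Tris pH 7.5/MgCl2 buffer plus serial compound dilutions. Remaining ATP was read by KinaseGlo Max luminescence, and IC50 was fitted from % ATP consumption versus log concentration.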
For orientation: In Kinase-Glo more light means more ATP remaining.

For experiment [2], the system named is cGAS activity in Reporter THP1 cell line. In words: Cellular assay to measure cGAS activity: ISRE-Gaussia luciferase reporter THP1 cells transfected with ISD. As to conditions: Homo sapiens, THP-1, untitled table after Table 4 (continuation). The class given is cell-based. In outline: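 THP1 ISRE-Gaussia luciferase reporter cells (0.3×10^6/well) pre-incubated 5 min with compound serial dilutions, then lipofectamine-transfected with 2 μg/mL ISD (45 bp DNA) or mock. Secreted luciferase read 16 h later with 1 μM coelenterazine at pH 6.5; IC50 from fold increase over mock. Specificity counter-screen used 2 μg/mL poly(I:C) or Sendai virus 50 Unit/mL.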
On the technique in general: A reporter such as luciferase makes a cellular process visible.

Structures are written as SMILES. pIC50: −log10 of the molar value.

T1 sequence (Q8N884 147-522): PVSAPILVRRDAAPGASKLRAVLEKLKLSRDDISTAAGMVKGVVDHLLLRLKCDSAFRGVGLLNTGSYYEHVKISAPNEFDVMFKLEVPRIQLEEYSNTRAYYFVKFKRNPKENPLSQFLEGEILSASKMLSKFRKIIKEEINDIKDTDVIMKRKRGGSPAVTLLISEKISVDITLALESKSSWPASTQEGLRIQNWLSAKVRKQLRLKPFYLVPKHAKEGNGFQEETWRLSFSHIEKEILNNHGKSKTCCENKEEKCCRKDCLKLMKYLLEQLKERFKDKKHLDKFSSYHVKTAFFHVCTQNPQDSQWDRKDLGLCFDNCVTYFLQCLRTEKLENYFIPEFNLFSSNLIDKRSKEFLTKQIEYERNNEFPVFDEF

For the molecule `O=C(O)CCOC[C@@H]1CCCCN1c1cc(-n2ccnc2)c2ccc(Cl)c(Cl)c2n1` [I-789], the negative-log IC50 (pIC50) in experiment [1] and in experiment [2] was greater than 5.70 in each case.

As for `COC(=O)CCNC(=O)[C@@H]1[C@@H](O)CCN1c1cc(-n2ccnc2)c2ccc(Cl)c(Cl)c2n1` [I-791, methyl 3-((2S,3S)-1-(7,8-dichloro-4-(1H-imidazol-1-yl)quinolin-2-yl)-3-hydroxypyrrolidine-2-carboxamido)propanoate], the values for the pIC50 in experiment [1] and in experiment [2] were 4.52 to 5.70 and less than 5.00, respectively.

With `C[C@H]1CCN(c2cc(-n3ccnc3)c3ccc(Cl)c(Cl)c3n2)[C@@H]1COCCC(=O)O` [I-792], the negative-log IC50 (pIC50) in experiment [1] and in experiment [2] was greater than 5.70 throughout.

For the molecule `O=C(O)CCOC[C@@H]1C[C@H](C(F)(F)F)CN1c1cc(-n2ccnc2)c2ccc(Cl)c(Cl)c2n1` [I-793], the negative logarithm of the IC50 (pIC50) in experiment [1] and in experiment [2] was greater than 5.70 throughout.

With `CC1(C)C[C@@H](COCCC(=O)O)N(c2cc(-n3ccnc3)c3ccc(Cl)c(Cl)c3n2)C1` [I-794], the negative-log IC50 (pIC50) in experiment [1] and in experiment [2] was greater than 5.70 throughout.

In the case of `C[C@@H]1C[C@@H](COCCC(=O)O)N(c2cc(-n3ccnc3)c3ccc(Cl)c(Cl)c3n2)C1` [I-795], the pIC50 in experiment [1] and in experiment [2] was greater than 5.70 throughout.

Regarding `CC(C)(C)O[C@@H]1C[C@@H](COCCC(=O)O)N(c2cc(-n3ccnc3)c3ccc(Cl)c(Cl)c3n2)C1` [I-796], the negative-log IC50 (pIC50) in experiment [1] and in experiment [2] was greater than 5.70 each time.

For `CO[C@H]1C[C@@H](COCCC(=O)O)N(c2cc(-n3ccnc3)c3ccc(Cl)c(Cl)c3n2)C1` [I-797], the pIC50 in experiment [1] and in experiment [2] was greater than 5.70 each time.

In the case of `O=C(O)CCOC[C@@H]1C[C@@H](N2CCOCC2)CN1c1cc(-n2ccnc2)c2ccc(Cl)c(Cl)c2n1` [I-799], the negative logarithm of the IC50 (pIC50) in experiment [1] is greater than 5.70; in experiment [2], less than 5.00.

As for `O=C(O)CCOCC12CC(CN1c1cc(-n3ccnc3)c3ccc(Cl)c(Cl)c3n1)C2` [I-800], the negative logarithm of the IC50 (pIC50) in experiment [1] and in experiment [2] was greater than 5.70 in each case.

Consider `C=C1C[C@@H](COCCC(=O)O)N(c2cc(-n3ccnc3)c3ccc(Cl)c(Cl)c3n2)C1` [I-801], for which the pIC50 in experiment [1] and in experiment [2] was greater than 5.70 each time.

For the molecule `O=C(O)CCOC[C@@H]1C[C@@H](c2ccccc2)CN1c1cc(-n2ccnc2)c2ccc(Cl)c(Cl)c2n1` [I-802], the negative-log IC50 (pIC50) in experiment [1] and in experiment [2] was greater than 5.70 throughout.

In the case of `O=C(O)CCOC[C@@H]1C[C@@H](C2CCCCC2)CN1c1cc(-n2ccnc2)c2ccc(Cl)c(Cl)c2n1` [I-803], the pIC50 in experiment [1] and in experiment [2] was greater than 5.70 each time.

Regarding `O=C(O)CCOC[C@@H]1C[C@H]2C[C@H]2N1c1cc(-n2ccnc2)c2ccc(Cl)c(Cl)c2n1` [I-805], the negative-log IC50 (pIC50) in experiment [1] and in experiment [2] was greater than 5.70 throughout.

For `O=C(O)CCOC[C@@H]1Cc2ccccc2N1c1cc(-n2ccnc2)c2ccc(Cl)c(Cl)c2n1` [I-806], the figures for the negative logarithm of the IC50 (pIC50) in experiment [1] and in experiment [2] were greater than 5.70 and 5.00 to 5.70, respectively.

Take `O=C(O)CCOCC1CC2CCC1N2c1cc(-n2ccnc2)c2ccc(Cl)c(Cl)c2n1` (stereo not drawn) [I-807]: the pIC50 in experiment [1] and in experiment [2] was greater than 5.70 throughout.

Turning to `O=C(O)CCOC[C@@H]1C[C@@H]2CCCC[C@@H]2N1c1cc(-n2ccnc2)c2ccc(Cl)c(Cl)c2n1` [I-808], the negative-log IC50 (pIC50) in experiment [1] and in experiment [2] was greater than 5.70 each time.

Regarding `C[C@H]1CC[C@@H](COCCC(=O)O)N1c1cc(-n2ccnc2)c2ccc(Cl)c(Cl)c2n1` [I-810], the pIC50 in experiment [1] and in experiment [2] was greater than 5.70 throughout.

Consider `O=C(O)CCOC[C@H]1CC2CCC1N2c1cc(-n2ccnc2)c2ccc(Cl)c(Cl)c2n1` (stereo partly drawn) [I-811], for which the negative-log IC50 (pIC50) in experiment [1] and in experiment [2] was greater than 5.70 throughout.

As to `C[C@H]1CN(c2cc(-n3ccnc3)c3ccc(Cl)c(Cl)c3n2)C[C@@H]1COCCC(=O)O` [I-814], the pIC50 in experiment [1] and in experiment [2] was greater than 5.70 each time.

As for `O=C(O)C1CCCCC1OC[C@@H]1CCCN1c1cc(-n2ccnc2)c2ccc(Cl)c(Cl)c2n1` (stereo partly drawn) [I-815], the pIC50 is greater than 5.70 in experiment [1] and 5.00 to 5.70 in experiment [2].

With `O=C(O)C1CCCC1OC[C@@H]1CCCN1c1cc(-n2ccnc2)c2ccc(Cl)c(Cl)c2n1` (stereo partly drawn) [I-816], the pIC50 in experiment [1] and in experiment [2] was greater than 5.70 each time.

As to `O=C(O)C(O)CC[C@@H]1CCCN1c1cc(-n2ccnc2)c2ccc(Cl)c(Cl)c2n1` (stereo partly drawn) [I-817, 4-((S)-1-(7,8-dichloro-4-(1H-imidazol-1-yl)quinolin-2-yl)pyrrolidin-2-yl)-2-hydroxybutanoic acid], the negative-log IC50 (pIC50) in experiment [1] was greater than 5.70; in experiment [2], less than 5.00.

For the molecule `O=C(O)COCCC[C@@H]1CCCN1c1cc(-n2ccnc2)c2ccc(Cl)c(Cl)c2n1` [I-820], the negative logarithm of the IC50 (pIC50) in experiment [1] and in experiment [2] was greater than 5.70 in each case.

In the case of `O=C(O)CCOCCOc1cc(-n2ccnc2)c2ccc(Cl)c(Cl)c2n1` [I-828, 3-(2-((7,8-dichloro-4-(1H-imidazol-1-yl)quinolin-2-yl)oxy)ethoxy)propanoic acid], the values for the negative-log IC50 (pIC50) in experiment [1] and in experiment [2] were 4.52 to 5.70 and less than 5.00, respectively.

Consider `O=C(O)CCOCC1(CNc2cc(-n3ccnc3)c3ccc(Cl)c(Cl)c3n2)CC1` [I-829], for which the pIC50 in experiment [1] is greater than 5.70; in experiment [2], 5.00 to 5.70.

With `O=C(O)CCCCCNc1cc(-c2cn[nH]c2)c2ccc(Cl)c(Cl)c2n1` [I-830], the negative-log IC50 (pIC50) in experiment [1] and in experiment [2] was greater than 5.70 throughout.

With `O=C(O)CCCCCCNc1cc(-n2ccnc2)c2ccc(Cl)c(Cl)c2n1` [I-831], the pIC50 in experiment [1] was greater than 5.70; in experiment [2], 5.00 to 5.70.

Regarding `CCN(CCOCCC(=O)O)c1cc(-n2ccnc2)c2ccc(Cl)c(Cl)c2n1` [I-832], the pIC50 in experiment [1] and in experiment [2] was greater than 5.70 throughout.

As for `CC(C)N(CCOCCC(=O)O)c1cc(-n2ccnc2)c2ccc(Cl)c(Cl)c2n1` [I-833], the negative-log IC50 (pIC50) in experiment [1] and in experiment [2] was greater than 5.70 each time.

Turning to `O=C(O)CCOCCN(c1cc(-n2ccnc2)c2ccc(Cl)c(Cl)c2n1)C1CC1` [I-834], the negative-log IC50 (pIC50) in experiment [1] and in experiment [2] was greater than 5.70 in each case.

Turning to `O=C(O)CCCCNc1cc(-n2ccnc2)c2ccc(Cl)c(Cl)c2n1` [I-835], the negative logarithm of the IC50 (pIC50) in experiment [1] is greater than 5.70; in experiment [2] it was 5.00 to 5.70.

For the molecule `O=C(O)CCOCCN(c1cc(-n2ccnc2)c2ccc(Cl)c(Cl)c2n1)C1CCCCC1` [I-836], the negative-log IC50 (pIC50) in experiment [1] and in experiment [2] was greater than 5.70 throughout.

For `O=C(O)CCOCCN(Cc1ccccc1)c1cc(-n2ccnc2)c2ccc(Cl)c(Cl)c2n1` [I-837], the pIC50 in experiment [1] and in experiment [2] was greater than 5.70 in each case.

Consider `O=C(O)CCOCCN(CCO)c1cc(-n2ccnc2)c2ccc(Cl)c(Cl)c2n1` [I-838], for which the negative logarithm of the IC50 (pIC50) in experiment [1] is greater than 5.70; in experiment [2], less than 5.00.

In the case of `O=C(O)CCOCCN(CCOCCC(=O)O)c1cc(-n2ccnc2)c2ccc(Cl)c(Cl)c2n1` [I-839], the pIC50 in experiment [1] is greater than 5.70; in experiment [2], less than 5.00.

For the molecule `O=C(O)CCOCc1cccc(-c2cc(-n3ccnc3)c3ccc(Cl)c(Cl)c3n2)c1` [I-840, 3-((3-(7,8-dichloro-4-(1H-imidazol-1-yl)quinolin-2-yl)benzyl)oxy)propanoic acid], the negative logarithm of the IC50 (pIC50) in experiment [1] and in experiment [2] was greater than 5.70 each time.

With `O=C(O)CCOCc1ccccc1-c1cc(-n2ccnc2)c2ccc(Cl)c(Cl)c2n1` [I-841], the results for the pIC50 in experiment [1] and in experiment [2] were greater than 5.70 and less than 5.00, respectively.

As for `CN(CCOc1ccccc1C(=O)O)c1cc(-n2ccnc2)c2ccc(Cl)c(Cl)c2n1` [I-842], the negative-log IC50 (pIC50) in experiment [1] is greater than 5.70; in experiment [2], 5.00 to 5.70.

As for `CN(CCOc1cccc(CC(=O)O)c1)c1cc(-n2ccnc2)c2ccc(Cl)c(Cl)c2n1` [I-843], the results for the pIC50 in experiment [1] and in experiment [2] were greater than 5.70 and 5.00 to 5.70, respectively.

For the molecule `O=C(O)Cc1cccc(CNc2cc(-n3ccnc3)c3ccc(Cl)c(Cl)c3n2)c1` [I-844], the negative logarithm of the IC50 (pIC50) in experiment [1] and in experiment [2] was greater than 5.70 in each case.

For the molecule `CN(Cc1cccc(CC(=O)O)c1)c1cc(-n2ccnc2)c2ccc(Cl)c(Cl)c2n1` [I-845], the negative-log IC50 (pIC50) in experiment [1] and in experiment [2] was greater than 5.70 throughout.

As for `CN(CCCOc1ccccc1C(=O)O)c1cc(-n2ccnc2)c2ccc(Cl)c(Cl)c2n1` [I-846], the negative logarithm of the IC50 (pIC50) in experiment [1] and in experiment [2] was greater than 5.70 each time.

`O=C(O)CCOC[C@@H]1CCCN1c1cc(-c2cn[nH]c2)c2cc(Cl)cc(Cl)c2n1` [I-853]: the negative-log IC50 (pIC50) in experiment [1] and in experiment [2] was greater than 5.70 each time.

Consider `O=C(O)CCCCCNc1cc(-c2cn[nH]c2)c2cc(Cl)cc(Cl)c2n1` [I-854], for which the figures for the pIC50 in experiment [1] and in experiment [2] were greater than 5.70 and less than 5.00, respectively.

With `O=C(O)CCOC[C@@H]1CCCN1c1cc(-c2cn[nH]c2)c2c(Cl)cc(Cl)cc2n1` [I-855], the results for the negative logarithm of the IC50 (pIC50) in experiment [1] and in experiment [2] were 4.52 to 5.70 and less than 5.00, respectively.

Regarding `COc1ccc2c(-n3ccnc3)cc(N3CCC[C@H]3COCCC(=O)O)nc2c1Cl` [I-856], the negative-log IC50 (pIC50) in experiment [1] is greater than 5.70; in experiment [2], 5.00 to 5.70.

Regarding `O=C(O)CCOC[C@@H]1CCCN1c1cc(-n2ccnc2)c2cc(Br)c(Cl)c(Cl)c2n1` [I-857], the negative logarithm of the IC50 (pIC50) in experiment [1] and in experiment [2] was greater than 5.70 in each case.

For the molecule `COc1c(Cl)ccc2c(-n3ccnc3)cc(N3CCC[C@H]3COCCC(=O)O)nc12` [I-860], the figures for the pIC50 in experiment [1] and in experiment [2] were greater than 5.70 and less than 5.00, respectively.

As for `O=C(O)CCOC[C@@H]1CCCN1c1cc(-n2ccnc2)c2ccc(Cl)c(Br)c2n1` [I-862], the negative logarithm of the IC50 (pIC50) in experiment [1] and in experiment [2] was greater than 5.70 each time.

Take `O=C(O)CCOC1CCN(c2cc(-n3ccnc3)c3ccc(Cl)c(Cl)c3n2)CC1` [I-864]: the negative logarithm of the IC50 (pIC50) in experiment [1] is greater than 5.70; in experiment [2], less than 5.00.

For orientation: pIC50 means −log10 of the IC50, conventionally taken in molar units.
